Marks after values point to notes of the source that are not given here.
Legend:
[1] = test system: HFD-induced NASH, mouse liver; assay: Liver histology (H&E, Masson's trichrome), 24 week study; format: in vivo, mice; details: groups CGS-2 / CNG-2 (10 μg/kg CGS26214 i.p. once per day, 5 weeks)
Description: To test the therapeutic effect of CGS-ANG in treating HFD-induced NASH, mice were fed HFD or LFD for 24 weeks (fully developed NASH model) and then randomly assigned to 9 groups with 8-10 mice per group before the medical treatments: (1), CD: mice fed the CD diet and treated with vehicle; (2), HFD: mice fed the HFD diet and treated with vehicle; (3), CGS-D1: mice fed the HFD diet and treated with 5 μg/kg of CGS26214; (4), CGS-D2: mice fed the HFD diet and treated with 10 μg/kg of CGS26214; (5) CGS-D3: mice fed the HFD diet and treated with 20 μg/kg of CGS 26214; (6) CNG-D1: mice fed the HFD diet and treated with CGS-ANG loaded with CGS26214 at a dose of 5 μg/kg; (7) CNG-D2: mice fed the HFD diet and treated with CGS-ANG loaded with CGS 26214 at a dose of 10 μg/kg; (8) CNG-D3: mice fed the HFD diet and treated with CGS-ANG loaded with CGS 26214 at a dose of 20 μg/kg; (9) BNG: mice fed the HFD diet and treated with BNG with the same dose of nanogels as group (8). All the treatments were injected intraperitoneally at the doses indicated once per day before the dark cycle of the day for 5 weeks. […]

[2] = test system: Diet Induced Obese (DIO) mice; assay: In vivo insulin resistance analysis (HOMA-IR) in DIO mice; details: 24 weeks HFD then 5-week dosing at 5, 10 or 20 μg/kg
Description: DIO mice were used to study the in vivo effects of CYTA-001 on insulin resistance within the context of obesity and diet. Homeostatic model assessment for insulin resistance (HOMA-IR) levels were measured in DIO mice that were conditioned on high fat diets (HFD) for 24 weeks prior to a 5-week dosing regimen. The HFD DIO mice were treated with either the non-liver targeted TRβ agonist, Axitirome (CGS26214), also referred to as “drug” in FIG. 11, or CYTA-001 at 5 μg/kg, 10 μg/kg, or 20 μg/kg dosages for 5 weeks.

[3] = test system: HFD-induced NASH (fully developed NASH model), male C57BL/6J mice; assay: Serum biochemical analysis, fully developed NASH model (24 week HFD prior to dosing); format: in vivo; details: 5 weeks, mean ± SE
Description: (§1) All animal care and experimental procedures were approved by the Ethical Committee on Animal Care and Experimentation. Male C57BL/6J mice were purchased at 6 weeks of age from the Jackson Laboratory and housed in a controlled environment (12 h light/dark cycle, 21±2° C., humidity 50±10%). Mice were permitted ad libitum access to water and either 10 kcal % fat control diet (CD, Cat #D09100304, Research Diets) or 40 kcal % fat, 20 kcal % fructose and 2% cholesterol high fat diet (HFD, Cat #D09100310, Research Diets).
To test the therapeutic effect of CGS-ANG in treating HFD-induced NASH, mice were fed HFD or LFD for 24 weeks (fully developed NASH model) and then randomly assigned to 9 groups with 8-10 mice per group before the medical treatments: (1), CD: mice fed the CD diet and treated with vehicle; (2), HFD: mice fed the HFD diet and treated with vehicle; (3), CGS-D1: mice fed the HFD diet and treated with 5 μg/kg of CGS26214; (4), CGS-D2: mice fed the HFD diet and treated with 10 μg/kg of CGS26214; (5) CGS-D3: mice fed the HFD diet and treated with 20 μg/kg of CGS 26214; (6) CNG-D1: mice fed the HFD diet and treated with CGS-ANG loaded with CGS26214 at a dose of 5 μg/kg; (7) CNG-D2: mice fed the HFD diet and treated with CGS-ANG loaded with CGS 26214 at a dose of 10 μg/kg; (8) CNG-D3: mice fed the HFD diet and treated with CGS-ANG loaded with CGS 26214 at a dose of 20 μg/kg; (9) BNG: mice fed the HFD diet and treated with BNG with the same dose of nanogels as group (8). All the treatments were injected intraperitoneally at the doses indicated once per day before the dark cycle of the day for 5 weeks.
(§2) After each designated treatment period, all the mice were sacrificed unfasted by cardiac puncture after gradual-fill CO2 asphyxiation. Terminal blood samples were collected in SST-SERUM separator tubes for serum collection. Epididymal fat pads (EFP), liver and hearts were removed and weighed. Data (weight gain, liver weight, heart weight, epididymal fat pad weight) from the 12 week and 24 week study are shown in FIGS. 3A-3D and 4A-4D, respectively. Portions of livers and hearts were collected and stored at −80° C. or fixed in 4% paraformaldehyde solution (Sigma-Aldrich, St. Louis, MO) for further analysis. Visual images of mice from each treatment groups at 24 weeks is shown in FIG. 5 while images of mice liver from each treatment group at 24 weeks is shown in FIG. 6.
(§3) Analysis of serum cholesterol (TC), high-density lipoprotein cholesterol (HDL-C), low-density lipoprotein cholesterol (LDL-C), triglycerides (TG), serum alanine aminotransferase (ALT) and aspartate aminotransferase (AST) was performed at Indexx BioAnalytics (North Grafton, MA) Plasma glucose, insulin, amyloid A (SAA), E-selectin and monocyte chemoattractant protein-1 (MCP-1) were quantified using commercial kits. Data from the 12 week and 24 week study are shown in Table 2 and Table 3, respectively.

[4] = Body weight and liver weight in the 12 week and 24 week HFD NASH models; format: in vivo, mice; details: the two models (12 week and 24 week HFD), i.p. once per day, 5 weeks
Description: All animal care and experimental procedures were approved by the Ethical Committee on Animal Care and Experimentation. Male C57BL/6J mice were purchased at 6 weeks of age from the Jackson Laboratory and housed in a controlled environment (12 h light/dark cycle, 21±2° C., humidity 50±10%). Mice were permitted ad libitum access to water and either 10 kcal % fat control diet (CD, Cat #D09100304, Research Diets) or 40 kcal % fat, 20 kcal % fructose and 2% cholesterol high fat diet (HFD, Cat #D09100310, Research Diets). […]
Body weight and food intake per cage were measured regularly during the study. […]

[5] = test system: Diet Induced Obese (DIO) mice; assay: In vivo serum T4 and TSH analysis in Diet Induced Obese mice; details: 5, 10 or 20 μg/kg, 12-week and 24-week timepoints, compared to lean control and high fat control
Description: A Diet Induced Obese (DIO) mouse model was used to study the in vivo effects of the CGS26214-encapsulated nanogels with anionic group-modified backbone (CGS-ANG), referred to as “CYTA-001,” on serum T4 and TSH within the context of obesity.
The DIO mice were treated with either the non-liver targeted TRβ agonist, Axitirome (CGS26214), also referred to as “drug” in FIGS. 10A and B, or CYTA-001 at 5 μg/kg, 10 μg/kg, or 20 μg/kg for 12 weeks or 24 weeks. Treated DIO mice serum T4/TSH levels were compared to a lean control (LC control), or low fat diet, and to a high fat control (HF control). After each designated treatment period, all the mice were sacrificed unfasted by cardiac puncture after gradual-fill CO2 asphyxiation. Terminal blood samples were collected in SST-SERUM separator tubes for serum collection.
Serum was analyzed for thyroid hormone T4 and thyroid stimulating hormone (TSH) levels. […] This is an unexpected result as thyromimetics have not been observed for weight loss without some level of peripheral activation of the TRα or TRβ receptor. Peripheral activation of the TRα receptor is generally toxic and ideally avoided.

[6] = test system: HFD-induced NASH (mild NASH model), male C57BL/6J mice; assay: Serum biochemical analysis, mild NASH model (12 week HFD prior to dosing); format: in vivo; details: for ALT / AST / Cholesterol / HDL Cholesterol / LDL Cholesterol / Triglycerides: serum, 12 week HFD prior to dosing, 5 weeks, mean ± SE
Description: as §1
To test the preventative effect of CGS-ANG in treating HFD-induced NASH, mice were fed high fat diet (HFD) or low fat diet (CD) for 12 weeks (mild NASH model) and then randomly assigned to 9 groups with 8-10 mice per group before treatment: (1), CD: mice fed the CD diet and treated with vehicle; (2), HFD: mice fed the HFD diet and treated with vehicle; (3), CGS-D1: mice fed the HFD diet and treated with 10 μg/kg of CGS26214 (suspended in saline with 1% DMSO); (4), CGS-D2: mice fed the HFD diet and treated with 20 μg/kg of CGS26214; (5) CGS-D3: mice fed the HFD diet and treated with 60 μg/kg of CGS26214; (6) CNG-D1: mice fed the HFD diet and treated with CGS-ANG loaded with CGS26214 at a dose of 10 μg/kg; (7) CNG-D2: mice fed the HFD diet and treated with CGS-ANG loaded with CGS26214 at a dose of 20 μg/kg; (8) CNG-D3: mice fed the HFD diet and treated with CGS-ANG loaded with CGS 26214 at a dose of 60 μg/kg; (9) BNG: mice fed the HFD diet and treated with BNG with the same dose of nanogels with group (8). All the treatments were injected intraperitoneally at the doses indicated once per day before the dark cycle of the day for 5 weeks.
as §2, §3

[7] = 5 μg/kg CGS26214 i.p. once per day
[8] = 10 μg/kg CGS26214 i.p. once per day
[9] = 20 μg/kg CGS26214 i.p. once per day
[10] = 60 μg/kg CGS26214 i.p. once per day

SMILES: CCOC(=O)C(=O)Nc1cc(C)c(Oc2ccc(O)c(C(O)c3ccc(F)cc3)c2)c(C)c1 (racemic) [CGS26214, ethyl (+−)-((4-(3-((4-fluorophenyl)hydroxymethyl)-4-hydroxyphenoxy)-3,5-dimethylphenyl)amino)oxoacetate]
- fibrosis and collagen deposition (Masson's trichrome staining) [1]: show signs of fibrosis and collagenous tissue fiber formation
- steatosis, inflammation and ballooning degeneration (hematoxylin-eosin staining) [1]: show macrovesicular and microvesicular steatosis, inflammation, and ballooning degeneration
- insulin resistance (HOMA-IR) [2]: not observed to produce a significant effect
- ALT [3, 7]: 276 ± 20^d
- AST [3, 7]: 319 ± 15^ceg
- Cholesterol [3, 7]: 278.9 ± 20.2^cef mg/dL
- LDL Cholesterol [3, 7]: 18.4 ± 2.3 mg/dL
- ALT [3, 8]: 257 ± 20^cd
- Cholesterol [3, 8]: 236.8 ± 16.6^cd mg/dL
- HDL Cholesterol [3, 8]: 113.4 ± 5.5^ab mg/dL
- LDL Cholesterol [3, 8]: 15.3 ± 1.1 mg/dL
- Triglycerides [3, 8]: 94.7 ± 9.5^cdf mg/dL
- ALT [3, 9]: 225 ± 10^cd
- AST [3, 9]: 247 ± 17^de
- Cholesterol [3, 9]: 196.9 ± 10.2^ade mg/dL
- HDL Cholesterol [3, 9]: 96.3 ± 3.9^ac mg/dL
- LDL Cholesterol [3, 9]: 11.4 ± 1.2 mg/dL
- Triglycerides [3, 9]: 90.3 ± 5.7^ad mg/dL
- effects on body weight [4]: only moderate effects
- effects on liver weight [4]: only moderate effects
- change in serum TSH [5]: statistically significant change
- ALT [6, 8]: 196 ± 26
- AST [6, 8]: 205 ± 27
- Cholesterol [6, 8]: 158.2 ± 19.2 mg/dL
- HDL Cholesterol [6, 8]: 87.2 ± 9.6 mg/dL
- LDL Cholesterol [6, 8]: <7 mg/dL
- Triglycerides [6, 8]: 87.6 ± 3.5 mg/dL
- ALT [6, 9]: 217 ± 28
- AST [6, 9]: 252 ± 47
- Cholesterol [6, 9]: 155.8 ± 11.8 mg/dL
- HDL Cholesterol [6, 9]: 76.8 ± 5.8 mg/dL
- LDL Cholesterol [6, 9]: <7 mg/dL
- Triglycerides [6, 9]: 83.5 ± 10 mg/dL
- ALT [6, 10]: 279 ± 68
- AST [6, 10]: 303 ± 49
- Cholesterol [6, 10]: 105.5 ± 23.7 mg/dL
- HDL Cholesterol [6, 10]: 53.1 ± 10.8 mg/dL
- LDL Cholesterol [6, 10]: <7 mg/dL
- Triglycerides [6, 10]: 78.7 ± 7.2 mg/dL
- reversing or preventing changes in biochemical markers induced by the high-fat diet ([6]; summary of Tables 2 and 3 (12 week and 24 week models), compared with LC control): much less effective
